Reference: patent US7482488B2, “Aryl and heteroaryl propene amides, derivatives thereof and therapeutic uses thereof” (Temple University - Of The Commonwealth System of Higher …, priority 2002, dated 2009)

Experiments:
Format in all cases: cell-based, human
[1] = test system: DLD1 (colorectal cancer); assay: Effect on tumor cell lines: viable cell count by trypan blue exclusion, DLD1; conditions: DLD1 colorectal cancer cells; 100 nM to 10 μM; viable cells counted 96 hours after treatment
Method: (§1) The effect of the aromatic acrylamides on normal fibroblasts and on tumor cells was determined by the assay described by Latham et al.,Oncogene 12:827-837 (1996). Normal diploid lung human fibroblasts (HFL-1) or tumor cells (BT20(breast cancer), DLD1 (colorectal cancer), DU145 (prostate cancer and K562 (chronic myelogenous leukemia )) were plated in 6-well dishes at a cell density of 1.0 ×10^5cells per 35-mm^2 well. The plated cells were treated 24 hours later with a compound of the invention, dissolved in DMSO at multiple concentrations ranging from 100 nM to 10 μM. The total number of viable cells was determined 96 hours later by trypsinizing the wells and counting the number of viable cells, as determined by trypan blue exclusion, using a hemacytometer. Normal HFL cells were treated with the same compounds under the same conditions of concentration and time.
(§2) Representative examples of activities of compounds of the invention in cell lines: BT20(breast cancer), DLD1 (colorectal cancer), DU145 (prostate cancer and K562 (chronic myelogenous leukemia ) are listed in Table 5.

[2] = test system: BT20 (breast cancer); assay: Effect on tumor cell lines: viable cell count by trypan blue exclusion, BT20; conditions: BT20 breast cancer cells; 100 nM to 10 μM; viable cells counted 96 hours after treatment
Method: as §1, §2

[3] = test system: DU145 (prostate cancer); assay: Effect on tumor cell lines: viable cell count by trypan blue exclusion, DU145; conditions: DU145 prostate cancer cells; 100 nM to 10 μM; viable cells counted 96 hours after treatment
Method: as §1, §2

[4] = test system: K562 (chronic myelogenous leukemia); assay: Effect on tumor cell lines: viable cell count by trypan blue exclusion, K562; conditions: K562 chronic myelogenous leukemia cells; 100 nM to 10 μM; viable cells counted 96 hours after treatment
Method: as §1, §2

Row | Structure (SMILES) | DLD1 activity [1] | BT20 activity [2] | DU145 activity [3] | K562 activity [4]
1 | COc1ccc(NC(=O)/C=C/c2c(OC)cc(OC)cc2OC)cc1 [Example 1, (E)-N-(4-Methoxyphenyl)-3-(2,4,6-trimethoxyphenyl)-2-propen-amide] | +++ (+++ denotes activity at 100 nM) | +++ (+++ denotes activity at 100 nM) | +++ (+++ denotes activity at 100 nM) | +++ (+++ denotes activity at 100 nM)
2 | COc1ccc(NC(=O)/C=C/c2c(OC)cccc2OC)cc1 [Example 2, (E)-N-(4-Methophenyl)-3-(2,6-dimethoxypheyl)-2-propenamide] | + (+ denotes activity at >10 μM) | + (+ denotes activity at >10 μM) | + (+ denotes activity at >10 μM) | + (+ denotes activity at >10 μM)
3 | COc1ccc(NC(=O)/C=C/c2cc(OC)c(OC)c(OC)c2)cc1N [Example 4, (E)-N-(4-Methoxy-3-aminophenyl)-3-(3,4,5-trimethoxyphenyl)-2-propenamide] | + (+ denotes activity at >10 μM) | + (+ denotes activity at >10 μM) | + (+ denotes activity at >10 μM) | + (+ denotes activity at >10 μM)
4 | COc1cc(OC)c(/C=C/C(=O)Nc2ccc(OC)c(N)c2)c(OC)c1 [Example 6, (E)-N-(4-methoxy-3-aminophenyl)-3-(2,4,6-trimethoxyphenyl)-2-propenamide] | +++ (+++ denotes activity at 100 nM) | +++ (+++ denotes activity at 100 nM) | +++ (+++ denotes activity at 100 nM) | +++ (+++ denotes activity at 100 nM)
5 | COc1ccc(NC(=O)/C=C/c2c(F)c(F)c(F)c(F)c2F)cc1[N+](=O)[O-] [Example 7, (E)-N-(4-Methoxy-3-nitrophenyl)-3-(2,3,4,5,6-pentafluorophenyl)-2-propenamide] | ++ (++ denotes activity at 10 μM) | ++ (++ denotes activity at 10 μM) | ++ (++ denotes activity at 10 μM) | ++ (++ denotes activity at 10 μM)
6 | COc1ccc(NC(=O)/C=C/c2ccc(N)c(F)c2)cc1N [Example 9, (E)-N-(4-Methoxy-3-aminophenyl)-3-(3-fluoro-4-aminophenyl)-2-propenamide] | ++ (++ denotes activity at 10 μM) | ++ (++ denotes activity at 10 μM) | ++ (++ denotes activity at 10 μM) | ++ (++ denotes activity at 10 μM)
7 | COc1cc(OC)c(/C=C/C(=O)Nc2ccc(OC)c(NC(=O)C(F)(F)F)c2)c(OC)c1 [Example 10, (E)-N-(4-Methoxy-3-trifluoroacetamidophenyl)-3-(2,4,6-trimethoxyphenyl)-2-propenamide] | +++ (+++ denotes activity at 100 nM) | +++ (+++ denotes activity at 100 nM) | +++ (+++ denotes activity at 100 nM) | +++ (+++ denotes activity at 100 nM)
8 | COc1cc(OC)c(/C=C/C(=O)Nc2ccc(OC)c(O)c2)c(OC)c1 [Example 11, (E)-N-(3-Hydoxy-4-methoxyphenyl)-3-(2,4,6-trimethoxyphenyl)-2-propenamide] | ++++ (++++ denotes activity at <100 nm) | ++++ (++++ denotes activity at <100 nm) | ++++ (++++ denotes activity at <100 nm) | ++++ (++++ denotes activity at <100 nm)
9 | COc1cc(/C=C/C(=O)Nc2ccc(Br)cc2)ccc1F [Example 12, (E)-N-(4-Bromophenyl)-3-(3-methoxy-4fluorophenyl)-2-propenamide] | ++ (++ denotes activity at 10 μM) | ++ (++ denotes activity at 10 μM) | ++ (++ denotes activity at 10 μM) | ++ (++ denotes activity at 10 μM)
10 | N#Cc1cc(/C=C/C(=O)Nc2ccc(Br)cc2)ccc1F [Example 13, (E)-N-(4-Bromophenyl)-3-(3-cyano-4-fluorophenyl)-2-propenamide] | ++ (++ denotes activity at 10 μM) | ++ (++ denotes activity at 10 μM) | ++ (++ denotes activity at 10 μM) | ++ (++ denotes activity at 10 μM)
